What all share (experiment): NCI anticancer screen, dose series, 48 h
The test system of experiment [1] is SF-539 CNS.
The subject of experiment [2] is SK-OV-3 ovarian.
The test system of experiment [3] is OVCAR-8 ovarian.
In experiment [4] the test system is MDA-MB-435.
The subject of experiment [5] is OVCAR-4 ovarian.
The test system of experiment [6] is DU-145 prostate.
Experiment [7] concerns BT-549 breast.
Experiment [8] deals with NCI-H522 lung.
Experiment [9] concerns A498 renal.
For experiment [10], the system named is NCI-H226 lung.

“And” between values parts separate entries of the source, which are not always exact repeats. Equal entries are not always repeated.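 Five concentrations, 48 hours, 96-well plates. At the GI50, growth is halved. At the TGI there is no net growth.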

This passage reports GI50 and TGI results from PubChem BioAssay (NCI).

As for `NC(N)=N/N=C(/c1ccccc1)c1ccccc1F`, the GI50 in [1] was 0.8 µM; in experiment [2], 4.82 µM; in [3], 4.03 µM; in [4] it was 0.347 µM; in [5] it was 1.73 µM; in experiment [6], 3.56 µM. Besides, the GI50 is 5.11 µM in [7], 3.12 µM in experiment [8], 2.28 µM in experiment [9] and 5.35 µM in [10]. In addition, the TGI in experiment [1] is 4.59 µM; in [2] it was 37.9 µM; in [3], 25.8 µM; in experiment [4], 3.81 µM; in experiment [5], 32 µM; in experiment [6] it was 16.6 µM. For the same compound, the TGI amounted to 23.6 µM in experiment [7], 14.7 µM in experiment [8], 9.44 µM in [9] and 22 µM in experiment [10].
Turning to `CNCc1cccc2c1OCCOCCOCCC(C)S(=O)(=O)c1ccc(cc1)-c1cnc(N)c(n1)C(=O)N2` (centres undefined), the GI50 in [1] is 1.28 µM; in experiment [2] it was 0.525 µM; in experiment [3], 1.78 µM; in experiment [4], 1.57 µM; in [5] it was 1.32 µM; in [6], 1.25 µM. Further, the GI50 in experiment [7] was 1.53 µM; in [8], 1.23 µM; in experiment [9], 0.139 µM; in [10], 1.98 µM. Moreover, the TGI in [1] was 2.56 µM; in experiment [2] it was 2.87 µM; in experiment [3] it was 7.9 µM; in experiment [4], 3.3 µM; in [5] it was 4.32 µM; in [6], 3.41 µM. Also, the TGI in [7] is 5.23 µM; in experiment [8], 3.25 µM; in experiment [9], 2.14 µM; in experiment [10], 5.46 µM.
Regarding `N#CC(NC(=O)CCl)=C(Cl)Cl`, the GI50 was 1.84 µM in experiment [1]; 5.05 µM in experiment [2]; 2.21 µM in [3]; 1.94 µM in experiment [4]; 1.76 µM in experiment [5]; 1.69 µM in experiment [6]. Further, the GI50 in [7] is 1.93 µM; in experiment [8], 0.437 µM; in experiment [9], 1.86 µM; in [10], 2.59 µM. Further, the TGI turned out to be 3.53 µM in experiment [1]; 16 µM in experiment [2]; 6.08 µM in experiment [3]; 4.03 µM in experiment [4]; 3.6 µM in [5]; 4.02 µM in [6]. For the same compound, the TGI in [7] was 4.1 µM; in experiment [8], 1.83 µM; in experiment [9] it was 3.88 µM; in experiment [10], 6.56 µM.
As for `O=NN(CCCl)C(=O)NC1CCCCC1`, the GI50 in experiment [1] is 16.4 µM and 33 µM; in experiment [2] it was 43.1 µM and 149 µM; in [3] it was 19.2 µM and 70.8 µM; in experiment [5], 20 µM; in experiment [8] it was 12.5 µM and 42.5 µM; in experiment [10], 25.2 µM. Moreover, the TGI was 34 µM and 84.4 µM and 124 µM in experiment [1]; 162 µM and 232 µM in experiment [2]; 42 µM and 208 µM and 215 µM in experiment [3]; 102 µM in [4]; 90.8 µM and 155 µM and 87.1 µM in experiment [5]; 132 µM in experiment [6]. Besides, the TGI is 81.7 µM in experiment [7]; 26.1 µM and 75.4 µM and 83.2 µM in experiment [8]; 155 µM in experiment [9]; 68.2 µM and 150 µM and 180 µM in experiment [10].
For `CC1OC(OC2C(O[C@H]3CC[C@@]4(C)C(=CC[C@H]5[C@@H]6C[C@@H]7O[C@]8(CC[C@@H](C)CO8)[C@@H](C)[C@@H]7[C@@]6(C)CC[C@@H]54)C3)OC(CO)C(OC3OC(CO)C(O)C3O)C2O)C(O)C(O)C1O` (some centres undefined), the GI50 in experiment [1] was 0.343 µM; in experiment [2] it was 1.29 µM; in [3], 0.423 µM; in [4], 0.434 µM; in experiment [5] it was 1.08 µM; in experiment [7] it was 1.37 µM. The GI50 in experiment [8] is 1.23 µM; in experiment [9] it was 0.733 µM. The TGI is 1.3 µM and 1.08 µM in [1]; 1.76 µM and 2.55 µM in experiment [2]; 1.16 µM and 1.5 µM in experiment [3]; 2 µM and 1.57 µM in experiment [4]; 2.2 µM and 2.26 µM in experiment [5]; 2.26 µM and 2.15 µM in experiment [6]. In addition, the TGI in experiment [7] is 1.84 µM and 2.66 µM; in experiment [8] it was 1.77 µM and 2.47 µM; in [9], 1.62 µM and 1.98 µM; in experiment [10] it was 1.73 µM.
In the case of `CC1=C(CNO)C2=C(C)C3(CC3)[C@@](C)(O)C(=O)C2=C1`, the GI50 in experiment [1] is 1.64 µM; in experiment [2] it was 1.13 µM; in experiment [3] it was 2.28 µM; in [4], 11.4 µM; in [5], 2.1 µM; in [6], 0.375 µM. Besides, the GI50 in experiment [7] is 1.24 µM; in experiment [8] it was 0.679 µM; in experiment [9], 1.6 µM; in experiment [10], 1.83 µM. The TGI in experiment [1] was found to be 5.03 µM; in experiment [2] it was 5.22 µM; in experiment [3] it was 36 µM; in experiment [4] it was 39 µM; in experiment [5], 7.06 µM; in experiment [6] it was 5.5 µM. The TGI in experiment [7] turned out to be 3.6 µM; in experiment [8], 5.25 µM; in experiment [9], 3.28 µM; in experiment [10], 4.79 µM.
